Results as given in paper PMC4832243, “Discovery of Potent VEGFR-2 Inhibitors based on Furopyrimidine and Thienopyrimidne Scaffolds as Cancer Targeting Agents” (Scientific Reports, 2016).

Tests used:
NCI-H322M = assay: NCI 60 cell line panel (SRB), NCI-H322M; format: cell-based; conditions: Homo sapiens, Non-Small Cell Lung Cancer, single dose of 10 μM, read-out: Cell Growth Percent
HL-60(TB) = assay: NCI 60 cell line panel (SRB), HL-60(TB); format: cell-based; conditions: Homo sapiens, Leukemia, single dose of 10 μM, read-out: Cell Growth Percent
HT29 = assay: NCI 60 cell line panel (SRB), HT29; format: cell-based; conditions: Homo sapiens, HT-29; HT29, Colon Cancer; single dose of 10 μM; read-out: Cell Growth Percent
OVCAR-5 = assay: NCI 60 cell line panel (SRB), OVCAR-5; format: cell-based; conditions: Homo sapiens; OVCAR-5, Ovarian Cancer; single dose of 10 μM; read-out: Cell Growth Percent
SF-268 = assay: NCI 60 cell line panel (SRB), SF-268; format: cell-based; conditions: Homo sapiens; SF-268, CNS Cancer; single dose of 10 μM; read-out: Cell Growth Percent
MDA-MB-435 = assay: NCI 60 cell line panel (SRB), MDA-MB-435; format: cell-based; conditions: Homo sapiens; MDA-MB-435, Melanoma; single dose of 10 μM; read-out: Cell Growth Percent
OVCAR-4 = assay: NCI 60 cell line panel (SRB), OVCAR-4; format: cell-based; conditions: Homo sapiens; OVCAR-4, Ovarian Cancer; single dose of 10 μM; read-out: Cell Growth Percent
UACC-257 = assay: NCI 60 cell line panel (SRB), UACC-257; format: cell-based; conditions: Homo sapiens; UACC-257, Melanoma; single dose of 10 μM; read-out: Cell Growth Percent
SR = assay: NCI 60 cell line panel (SRB), SR; format: cell-based; conditions: Homo sapiens, Leukemia, single dose of 10 μM, read-out: Cell Growth Percent
VEGFR-2 (KDR) = target: T1, VEGFR-2 (KDR) (Homo sapiens, UniProt P35968); assay: In vitro VEGFR-2 tyrosine kinase activity (Kinase-Glo Plus luminescence, BPS Bioscience); format: biochemical; conditions: for inhibition at 10 µM: single dose concentration of 10 μM
T1 construct: purchased BPS Bioscience 40301

NCI-H460 = assay: NCI 60 cell line panel (SRB), NCI-H460; format: cell-based; conditions: Homo sapiens; NCI-H460, Non-Small Cell Lung Cancer; single dose of 10 μM; read-out: Cell Growth Percent
786-0 = assay: NCI 60 cell line panel (SRB), 786-0; format: cell-based; conditions: Homo sapiens; 786-0, Renal Cancer; single dose of 10 μM; read-out: Cell Growth Percent
HOP-92 = assay: NCI 60 cell line panel (SRB), HOP-92; format: cell-based; conditions: Homo sapiens; HOP-92, Non-Small Cell Lung Cancer; single dose of 10 μM; read-out: Cell Growth Percent
HS 578T = assay: NCI 60 cell line panel (SRB), HS 578T; format: cell-based; conditions: Homo sapiens, Breast Cancer, single dose of 10 μM, read-out: Cell Growth Percent
RPMI-8226 = assay: NCI 60 cell line panel (SRB), RPMI-8226; format: cell-based; conditions: Homo sapiens; RPMI-8226, Leukemia; single dose of 10 μM; read-out: Cell Growth Percent
SF-295 = assay: NCI 60 cell line panel (SRB), SF-295; format: cell-based; conditions: Homo sapiens; SF-295, CNS Cancer; single dose of 10 μM; read-out: Cell Growth Percent
DU-145 = assay: NCI 60 cell line panel (SRB), DU-145; format: cell-based; conditions: Homo sapiens; DU-145, Prostate Cancer; single dose of 10 μM; read-out: Cell Growth Percent
SK-MEL-5 = assay: NCI 60 cell line panel (SRB), SK-MEL-5; format: cell-based; conditions: Homo sapiens; SK-MEL-5, Melanoma; single dose of 10 μM; read-out: Cell Growth Percent
ACHN = assay: NCI 60 cell line panel (SRB), ACHN; format: cell-based; conditions: Homo sapiens, Renal Cancer, single dose of 10 μM, read-out: Cell Growth Percent
CAKI-1 = assay: NCI 60 cell line panel (SRB), CAKI-1; format: cell-based; conditions: Homo sapiens; CAKI-1, Renal Cancer; single dose of 10 μM; read-out: Cell Growth Percent
NCI/ADR-RES = assay: NCI 60 cell line panel (SRB), NCI/ADR-RES; format: cell-based; conditions: Homo sapiens, Ovarian Cancer, single dose of 10 μM, read-out: Cell Growth Percent
SK-MEL-2 = assay: NCI 60 cell line panel (SRB), SK-MEL-2; format: cell-based; conditions: Homo sapiens; SK-MEL-2, Melanoma; single dose of 10 μM; read-out: Cell Growth Percent
PC-3 = assay: NCI 60 cell line panel (SRB), PC-3; format: cell-based; conditions: Homo sapiens; PC-3, Prostate Cancer; single dose of 10 μM; read-out: Cell Growth Percent
SN12C = assay: NCI 60 cell line panel (SRB), SN12C; format: cell-based; conditions: Homo sapiens, Renal Cancer, single dose of 10 μM, read-out: Cell Growth Percent
NCI-H226 = assay: NCI 60 cell line panel (SRB), NCI-H226; format: cell-based; conditions: Homo sapiens; NCI-H226, Non-Small Cell Lung Cancer; single dose of 10 μM; read-out: Cell Growth Percent
T-47D = assay: NCI 60 cell line panel (SRB), T-47D; format: cell-based; conditions: Homo sapiens, T47D, Breast Cancer, single dose of 10 μM, read-out: Cell Growth Percent
NCI-H522 = assay: NCI 60 cell line panel (SRB), NCI-H522; format: cell-based; conditions: Homo sapiens; NCI-H522, Non-Small Cell Lung Cancer; single dose of 10 μM; read-out: Cell Growth Percent
EKVX = assay: NCI 60 cell line panel (SRB), EKVX; format: cell-based; conditions: Homo sapiens, Non-Small Cell Lung Cancer, single dose of 10 μM, read-out: Cell Growth Percent
UACC-62 = assay: NCI 60 cell line panel (SRB), UACC-62; format: cell-based; conditions: Homo sapiens; UACC-62, Melanoma; single dose of 10 μM; read-out: Cell Growth Percent
MCF7 = assay: NCI 60 cell line panel (SRB), MCF7; format: cell-based; conditions: Homo sapiens; MCF7, Breast Cancer; single dose of 10 μM; read-out: Cell Growth Percent
OVCAR-8 = assay: NCI 60 cell line panel (SRB), OVCAR-8; format: cell-based; conditions: Homo sapiens; OVCAR-8, Ovarian Cancer; single dose of 10 μM; read-out: Cell Growth Percent
MDA-MB-468 = assay: NCI 60 cell line panel (SRB), MDA-MB-468; format: cell-based; conditions: Homo sapiens; MDA-MB-468, Breast Cancer; single dose of 10 μM; read-out: Cell Growth Percent
A498 = assay: NCI 60 cell line panel (SRB), A498; format: cell-based; conditions: Homo sapiens; A498, Renal Cancer; single dose of 10 μM; read-out: Cell Growth Percent
K-562 = assay: NCI 60 cell line panel (SRB), K-562; format: cell-based; conditions: Homo sapiens, K562; K-562, Leukemia; single dose of 10 μM; read-out: Cell Growth Percent

T1 sequence (P35968 20-1356): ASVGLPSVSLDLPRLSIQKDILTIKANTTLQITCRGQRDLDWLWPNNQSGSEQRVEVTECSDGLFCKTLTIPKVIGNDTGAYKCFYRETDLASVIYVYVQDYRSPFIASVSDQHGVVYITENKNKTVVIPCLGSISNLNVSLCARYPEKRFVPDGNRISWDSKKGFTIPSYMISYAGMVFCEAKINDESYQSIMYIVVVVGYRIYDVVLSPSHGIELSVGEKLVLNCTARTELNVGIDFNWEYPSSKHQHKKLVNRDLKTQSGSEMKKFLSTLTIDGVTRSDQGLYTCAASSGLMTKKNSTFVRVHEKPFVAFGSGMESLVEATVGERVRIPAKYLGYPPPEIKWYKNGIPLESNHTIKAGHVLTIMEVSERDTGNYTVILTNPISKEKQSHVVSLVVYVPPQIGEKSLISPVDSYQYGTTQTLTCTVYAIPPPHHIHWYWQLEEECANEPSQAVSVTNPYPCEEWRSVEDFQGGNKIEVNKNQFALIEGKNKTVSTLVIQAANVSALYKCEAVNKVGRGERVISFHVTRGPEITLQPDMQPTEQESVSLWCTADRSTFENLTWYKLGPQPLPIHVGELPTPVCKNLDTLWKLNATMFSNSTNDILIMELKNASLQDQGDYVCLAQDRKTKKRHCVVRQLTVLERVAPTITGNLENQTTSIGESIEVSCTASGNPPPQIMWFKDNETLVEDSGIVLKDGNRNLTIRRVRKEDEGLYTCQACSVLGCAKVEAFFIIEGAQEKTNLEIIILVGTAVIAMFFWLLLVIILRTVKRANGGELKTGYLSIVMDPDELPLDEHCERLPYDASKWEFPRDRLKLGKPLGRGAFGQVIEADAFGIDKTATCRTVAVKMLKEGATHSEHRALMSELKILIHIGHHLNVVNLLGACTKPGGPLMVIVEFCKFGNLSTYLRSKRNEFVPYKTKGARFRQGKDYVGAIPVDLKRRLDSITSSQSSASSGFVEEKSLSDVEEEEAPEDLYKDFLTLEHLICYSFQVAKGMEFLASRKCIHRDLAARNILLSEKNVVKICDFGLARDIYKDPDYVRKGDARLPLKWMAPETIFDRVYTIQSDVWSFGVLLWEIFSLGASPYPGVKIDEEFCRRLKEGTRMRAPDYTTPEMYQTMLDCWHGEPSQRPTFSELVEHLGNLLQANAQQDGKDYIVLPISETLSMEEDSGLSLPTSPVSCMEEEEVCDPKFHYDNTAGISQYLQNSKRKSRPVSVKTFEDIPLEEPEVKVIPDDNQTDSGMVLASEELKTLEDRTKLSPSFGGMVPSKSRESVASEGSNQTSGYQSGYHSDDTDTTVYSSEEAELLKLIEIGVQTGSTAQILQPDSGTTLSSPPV

| Structure (SMILES) | activity at 10 µM (NCI-H322M) [%] | activity at 10 µM (HL-60(TB)) [%] | activity at 10 µM (HT29) [%] | activity at 10 µM (OVCAR-5) [%] | activity at 10 µM (SF-268) [%] | activity at 10 µM (MDA-MB-435) [%] | activity at 10 µM (OVCAR-4) [%] | activity at 10 µM (UACC-257) [%] | activity at 10 µM (SR) [%] | activity at 10 µM (NCI-H460) [%] | activity at 10 µM (786-0) [%] | activity at 10 µM (HOP-92) [%] | activity at 10 µM (HS 578T) [%] | activity at 10 µM (RPMI-8226) [%] | activity at 10 µM (SF-295) [%] | activity at 10 µM (DU-145) [%] | activity at 10 µM (SK-MEL-5) [%] | activity at 10 µM (ACHN) [%] | activity at 10 µM (CAKI-1) [%] | activity at 10 µM (NCI/ADR-RES) [%] | also measured |
| --- | --- | --- | --- | --- | --- | --- | --- | --- | --- | --- | --- | --- | --- | --- | --- | --- | --- | --- | --- | --- | --- |
| Cc1cccc(NC(=O)Nc2ccc(Oc3ncnc4sc5c(c34)CCCC5)cc2)c1 [Compound 21b] | 91.2 | 98.4 | 65.6 | 114 | 72.6 | 79.3 | 61.2 | 107 | 55.8 | 65.2 | 87 | 80.9 | 76.8 | 58.9 | 67.6 | 81.3 | 72.9 | 73.4 | 86 | 71.5 | IC50 (VEGFR-2 (KDR); 5 concentrations 1 nM - 10 μM): 33.4 nM; activity at 10 µM (SK-MEL-2): 99.7%; activity at 10 µM (PC-3): 37.5%; activity at 10 µM (SN12C): 75.9%; activity at 10 µM (NCI-H226): 73.1%; activity at 10 µM (T-47D): 49.2%; activity at 10 µM (NCI-H522): 16.1%; activity at 10 µM (EKVX): 62.8%; activity at 10 µM (UACC-62): 75.7%; activity at 10 µM (MCF7): 44.1%; activity at 10 µM (OVCAR-8): 85.9%; activity at 10 µM (MDA-MB-468): 87.2%; activity at 10 µM (A498): 68.3%; activity at 10 µM (K-562): 57.9% |
| CCOC(=O)c1c(C)oc2ncnc(Nc3ccc(C(=O)Nc4ccc(OC)cc4)cc3)c12 [Compound 14b] | 112 | 88.6 | 81.1 | 114 | 101 | 106 | 95.6 | 94.7 | 74.6 | 97 | 92.1 | 78.8 | 83.7 | 91.3 | 99.3 | 97.1 | 87.9 | 95.2 | 96.6 | 88.7 | inhibition at 10 µM (VEGFR-2 (KDR)): 8%; activity at 10 µM (SK-MEL-2): 107%; activity at 10 µM (PC-3): 83.6%; activity at 10 µM (SN12C): 103%; activity at 10 µM (NCI-H226): 94.2%; activity at 10 µM (T-47D): 91%; activity at 10 µM (NCI-H522): 84%; activity at 10 µM (EKVX): 91.1%; activity at 10 µM (UACC-62): 93.4%; activity at 10 µM (MCF7): 95.6%; activity at 10 µM (OVCAR-8): 98.9%; activity at 10 µM (MDA-MB-468): 102%; activity at 10 µM (A498): 75.3%; activity at 10 µM (K-562): 107% |
| O=C(Nc1ccccc1)Nc1ccc(Nc2ncnc3sc4c(c23)CCCC4)cc1 [Compound 20a] | 106 | 97 | 96.1 | 119 | 100 | 112 | 107 | 93.5 | 97.8 | 104 | 110 | 100 | 85.3 | 99.2 | 102 | 109 | 97.3 | 101 | 100 | 107 | inhibition at 10 µM (VEGFR-2 (KDR)): 39%; activity at 10 µM (SK-MEL-2): 114%; activity at 10 µM (PC-3): 89.8%; activity at 10 µM (SN12C): 99.2%; activity at 10 µM (NCI-H226): 89.8%; activity at 10 µM (T-47D): 100%; activity at 10 µM (NCI-H522): 92.9%; activity at 10 µM (EKVX): 102%; activity at 10 µM (UACC-62): 97.8%; activity at 10 µM (MCF7): 96.2%; activity at 10 µM (OVCAR-8): 107%; activity at 10 µM (MDA-MB-468): 96.8%; activity at 10 µM (A498): 83.3%; activity at 10 µM (K-562): 99.7% |
| COc1cccc(NC(=O)Nc2ccc(Nc3ncnc4sc5c(c34)CCCC5)cc2)c1 [Compound 20c] | 98.8 | 91.1 | 104 | 106 | 99.5 | 98.5 | 88.8 | 94.9 | 84.6 | 106 | 100 | 118 | 74.4 | 102 | 99 | 105 | 92.3 | 92 | 97 | 106 | inhibition at 10 µM (VEGFR-2 (KDR)): 67%; activity at 10 µM (SK-MEL-2): 116%; activity at 10 µM (PC-3): 89.6%; activity at 10 µM (SN12C): 91%; activity at 10 µM (NCI-H226): 90.1%; activity at 10 µM (T-47D): 66.4%; activity at 10 µM (NCI-H522): 81.2%; activity at 10 µM (EKVX): 89.6%; activity at 10 µM (UACC-62): 106%; activity at 10 µM (MCF7): 86.2%; activity at 10 µM (OVCAR-8): 113%; activity at 10 µM (MDA-MB-468): 114%; activity at 10 µM (A498): 91.3%; activity at 10 µM (K-562): 97.2% |
| O=C(Nc1ccc(Cl)cc1)Nc1ccc(Oc2ncnc3sc4c(c23)CCCC4)cc1 [Compound 21d] | 103 | 100 | 86.4 | 113 | 87 | 93.7 | 93.6 | 91.4 | 72.4 | 82.1 | 108 | 102 | 74.7 | 68.8 | 101 | 91.9 | 78.4 | 95.4 | 95.4 | 85 | inhibition at 10 µM (VEGFR-2 (KDR)): 46%; activity at 10 µM (SK-MEL-2): 104%; activity at 10 µM (PC-3): 57.6%; activity at 10 µM (SN12C): 86.5%; activity at 10 µM (NCI-H226): 74%; activity at 10 µM (T-47D): 73.3%; activity at 10 µM (NCI-H522): 47.5%; activity at 10 µM (EKVX): 82.9%; activity at 10 µM (UACC-62): 73.2%; activity at 10 µM (MCF7): 83.2%; activity at 10 µM (OVCAR-8): 94.7%; activity at 10 µM (MDA-MB-468): 103%; activity at 10 µM (A498): 70.1%; activity at 10 µM (K-562): 84.2% |
